Structures can show the parent of a compound that is named as a salt.
Assays:
[1] = target: T1, 5-HT1A receptor (Rattus norvegicus, UniProt P19327); assay: Affinity for 5-HT1A receptors by displacement of (3H)8-OH-DPAT; type: binding; parameters: from tissue; host or cells: rat cerebral cortex membrane homogenate; conditions: for Ki: rat cerebral cortex, (3H)8-OH-DPAT displacement, read-out: pKi 5-HT1A (converted); for Selectivity 5-HT1A/D2: ratio of the affinity constants (Ki) D2/Ki (5-HT1A)
T1 sequence (P19327 1-422): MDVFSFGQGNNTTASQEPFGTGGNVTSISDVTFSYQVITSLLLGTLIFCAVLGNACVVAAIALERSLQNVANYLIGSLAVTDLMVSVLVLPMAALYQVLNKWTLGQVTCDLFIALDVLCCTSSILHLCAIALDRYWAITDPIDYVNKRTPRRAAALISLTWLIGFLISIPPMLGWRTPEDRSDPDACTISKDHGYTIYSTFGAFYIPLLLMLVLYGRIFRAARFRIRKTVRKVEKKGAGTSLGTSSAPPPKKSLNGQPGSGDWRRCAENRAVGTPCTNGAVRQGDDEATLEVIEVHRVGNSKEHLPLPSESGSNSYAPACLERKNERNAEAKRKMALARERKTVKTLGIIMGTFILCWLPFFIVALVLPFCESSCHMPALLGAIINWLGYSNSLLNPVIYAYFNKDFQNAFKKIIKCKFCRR
Procedure: 1—Measurement of the Affinity of the Compounds of the Invention for the 5-HT1A Receptors
The in vitro affinity of the compounds of the invention for 5-HT1A receptors was determined by measuring the displacement of (^3H)8-OH-DPAT (TRK 850; 160-240 Ci/mmol).
The study of the binding to the 5-HT1A receptor is carried out as described by Sleight and Peroutka (Naunyn-Schmiedeberg's Arch. Pharmaco., 1991, 343, 106). Rat cerebral cortices are used for these experiments. After thawing the brain in 50 mmol Tris-HCl buffer pH=7.40 at 25° C., the cerebral cortex is removed and homogenized in 20 volumes of buffer maintained at 4°C. The homogenate is centrifuged at 39,000×g for 10 minutes and the centrifugation pellet is suspended in the same volume of buffer and centrifuged again. After resuspending under the same conditions, the homogenate is incubated for 10 minutes at 37° C. and then centrifuged again. The final pellet is suspended in cold 50 mmol Tris-HCl reaction buffer, pH=7.40 at 25° C., containing 10 mmol of pargyline, 4 mmol of CaCl2 and 0.10% ascorbic acid. The final concentration of tissue in the incubation medium is 10 mg/tube.
The reaction tubes contain 0.10 ml of (^3H)8-OH-DPAT ([…]), 0.10 ml of test product 6-7 concentrations and 0.80 ml of tissue. The nonspecific binding is defined using 10 mmol of 5-HT. The reaction tubes are incubated at 23° C. for 30 minutes and their contents are then rapidly filtered under vacuum through Whatman GF/B filters and the tubes are rinsed with twice 5 ml of 50 mmol Tris-HCl buffer, pH=7.4 at 25° C. The radioactivity collected on the filter is analyzed by liquid scintillation by adding 4 ml of liquid scintillant (Emulsifier Safe, Packard). All the experiments are carried out in triplicate.
The inhibition constants (Ki) of the products of the invention are estimated from the displacement experiments using the nonlinear regression program RADLIG version 4 from EBDA (Equilibrium Binding Data Analysis) (Biosoft, Cambridge, UK, McPherson, 1985). The dissociation constants of the radioactive ligands used in the calculations are […] for (^3H)8-OH-DPAT and 0.036 mmol for (^3H)YM-09151-2. The pKi (−logKi) values are given in the form of the mean±SEM of at least 3 experiments.

[2] = target: T1, 5-HT1A receptor; assay: 5-HT1A receptor agonist activity in vivo: lower lip retraction (LLR) after oral administration; parameters: Male Sprague Dawley rats (ICO:OFAD [IOPS], Iffa Credo, France); from tissue; host or cells: whole animal, male Sprague Dawley rats, oral dosing; conditions: rats, observed t55 to t65 min, doses as base weight, read-out: LLR p.o. ED50
From the text: 3—Evaluation of the 5-HT1A Receptor Agonist Activity of the Compounds of the Invention In Vivo.
Male Sprague Dawley rats (ICO:OFAD [IOPS], Iffa Credo, France), weighing 160-180 g on arrival and 180-200 g at the start of the tests, are used. The animals are placed in quarantine for 4 to 8 days with free access to standardized laboratory food, before being used in the experiments. The animals are housed individually in plastic cages on cage holders (28 cm×21 cm×18 cm) with a grille floor (RC Iffa Credo), 24 hours before the tests. By means of an automatic dispenser, water filtered through a 0.22 μm filter is freely available. The quarantine area and the experiment laboratory are air conditioned (temperature: 22±1° C.; relative humidity: 55±5%) and illuminated from 7 a.m. to 7 p.m. All the rats are treated according to the ethics for laboratory animals (Guide for the Care and Use of Laboratory Animals, U.S. Department of Agriculture, Public Health Service, National Institutes of Health publication No. 85-23, Revised 1985) and the protocol (No. 15) is carried out in accordance with the recommendations of the local research animals ethics committee. […]
The behavior of the animal is observed for a period of 10 minutes each, centered at t60 minutes, after oral administration. […] The products are administered in a volume of 10 ml/kg and the doses are expressed as base weight. […]

SMILES	Ki [1] [nM]	Selectivity 5-HT1A/D2 [1]	ED50 [2] [mg/kg]	melting point [°C]
O=C(c1ccc(F)c(Cl)c1)N1CCC(F)(CNCCc2ccccn2)CC1 [Example 1, (3-Chloro-4-fluorophenyl){4-fluoro-4-[(2-pyrid-2-ylethylamino)methyl]-l-piperidyl}methanone]	0.155	4 266	0.31	
O=C(c1ccc(Cl)c(Cl)c1)N1CCC(F)(CNCCc2ccccn2)CC1 [Example 2, (3,4-Dichlorophenyl){4-fluoro-4-[(2-pyrid-2-ylethylamino)methyl]-1-piperidyl}methanone]	0.38	1 318	0.31	
O=C(c1ccc(Cl)c(Cl)c1)N1CCC(F)(CNCCc2ccccn2)CC1 (as salt: oxalate) [Example 2, (3,4-Dichlorophenyl){4-fluoro-4-[(2-pyrid-2-ylethylamino)methyl]-1-piperidyl}methanone]				192 to 194
O=C(c1ccc(F)c(Cl)c1)N1CCC(F)(CNCCc2ccccn2)CC1 (as salt: oxalate) [Example 1, (3-Chloro-4-fluorophenyl){4-fluoro-4-[(2-pyrid-2-ylethylamino)methyl]-l-piperidyl}methanone]				172 to 174

Reference: patent US6448268B1, “Aryl-{4-fluoro-4-[(2-pyridin-2-yl-ethylamino)-methyl]-piperidin-1-yl}-methanone derivatives as 5-ht1 receptor antagonists” (Pierre Fabre Medicament, priority 1998, dated 2002)
